Data: ChEMBL document CHEMBL5214888, “The new opportunities in medicinal chemistry of fourth-generation EGFR inhibitors to overcome C797S mutation” (Eur J Med Chem, 2021)
Blank lines part the entries; values can stand above or below the compound they belong to.

What was measured:
[1] = biological target: T1, Epidermal growth factor receptor (Homo sapiens, UniProt P00533, C797S/EX19DEL/T790M); experiment: Inhibition of EGFR del19/T790M/C797S triple mutant (unknown origin) phosphorylation expressed in mouse BaF3 cells by fluorescence based microplate reader analysis; format: cell-based
T1 sequence (P00533 whole entry, looked up, stated change not applied): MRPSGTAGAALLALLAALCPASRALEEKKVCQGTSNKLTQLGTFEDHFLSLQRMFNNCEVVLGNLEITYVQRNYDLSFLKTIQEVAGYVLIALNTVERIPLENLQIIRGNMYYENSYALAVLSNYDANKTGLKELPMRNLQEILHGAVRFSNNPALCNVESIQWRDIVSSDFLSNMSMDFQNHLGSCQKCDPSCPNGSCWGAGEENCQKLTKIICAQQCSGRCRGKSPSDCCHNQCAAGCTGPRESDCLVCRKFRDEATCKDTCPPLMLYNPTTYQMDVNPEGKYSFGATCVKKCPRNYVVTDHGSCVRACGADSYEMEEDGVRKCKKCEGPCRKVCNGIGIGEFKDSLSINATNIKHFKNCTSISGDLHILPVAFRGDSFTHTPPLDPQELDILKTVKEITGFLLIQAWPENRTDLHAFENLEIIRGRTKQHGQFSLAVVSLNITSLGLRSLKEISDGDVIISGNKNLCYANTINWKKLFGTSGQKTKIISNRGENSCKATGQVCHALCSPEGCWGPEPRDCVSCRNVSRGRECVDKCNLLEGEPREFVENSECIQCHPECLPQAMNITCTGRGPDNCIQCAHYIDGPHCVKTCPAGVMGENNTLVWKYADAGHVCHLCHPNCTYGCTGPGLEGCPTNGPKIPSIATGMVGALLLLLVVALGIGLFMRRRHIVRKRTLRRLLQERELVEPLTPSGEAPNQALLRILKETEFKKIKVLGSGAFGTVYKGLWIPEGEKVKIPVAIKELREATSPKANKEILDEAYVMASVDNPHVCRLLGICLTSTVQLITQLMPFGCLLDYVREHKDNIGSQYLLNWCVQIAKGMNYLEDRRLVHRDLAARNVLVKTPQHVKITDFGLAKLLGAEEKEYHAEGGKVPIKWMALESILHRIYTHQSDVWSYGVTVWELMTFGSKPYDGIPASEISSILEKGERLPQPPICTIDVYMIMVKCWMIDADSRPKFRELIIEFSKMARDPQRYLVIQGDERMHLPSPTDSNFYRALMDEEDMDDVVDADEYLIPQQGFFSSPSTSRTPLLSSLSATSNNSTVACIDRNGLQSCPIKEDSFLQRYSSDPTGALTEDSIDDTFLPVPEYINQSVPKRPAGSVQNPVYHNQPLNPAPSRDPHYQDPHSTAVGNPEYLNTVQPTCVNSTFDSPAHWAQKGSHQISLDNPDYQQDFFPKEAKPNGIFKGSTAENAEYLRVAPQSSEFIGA

BaF3 [2] = experiment: Antiproliferative activity against mouse BaF3 cells harboring EGFR del19/T790M/C797S triple mutant assessed as inhibition of cell proliferation by celltiter-Glo assay; format: functional, cell-based
[3] = biological target: T2, Epidermal growth factor receptor (Homo sapiens, UniProt P00533, L858R/T790M); experiment: Inhibition of EGFR L858R/T790M mutant (unknown origin)
T2 sequence (P00533 25-1210 T790M/L858R limits assumed): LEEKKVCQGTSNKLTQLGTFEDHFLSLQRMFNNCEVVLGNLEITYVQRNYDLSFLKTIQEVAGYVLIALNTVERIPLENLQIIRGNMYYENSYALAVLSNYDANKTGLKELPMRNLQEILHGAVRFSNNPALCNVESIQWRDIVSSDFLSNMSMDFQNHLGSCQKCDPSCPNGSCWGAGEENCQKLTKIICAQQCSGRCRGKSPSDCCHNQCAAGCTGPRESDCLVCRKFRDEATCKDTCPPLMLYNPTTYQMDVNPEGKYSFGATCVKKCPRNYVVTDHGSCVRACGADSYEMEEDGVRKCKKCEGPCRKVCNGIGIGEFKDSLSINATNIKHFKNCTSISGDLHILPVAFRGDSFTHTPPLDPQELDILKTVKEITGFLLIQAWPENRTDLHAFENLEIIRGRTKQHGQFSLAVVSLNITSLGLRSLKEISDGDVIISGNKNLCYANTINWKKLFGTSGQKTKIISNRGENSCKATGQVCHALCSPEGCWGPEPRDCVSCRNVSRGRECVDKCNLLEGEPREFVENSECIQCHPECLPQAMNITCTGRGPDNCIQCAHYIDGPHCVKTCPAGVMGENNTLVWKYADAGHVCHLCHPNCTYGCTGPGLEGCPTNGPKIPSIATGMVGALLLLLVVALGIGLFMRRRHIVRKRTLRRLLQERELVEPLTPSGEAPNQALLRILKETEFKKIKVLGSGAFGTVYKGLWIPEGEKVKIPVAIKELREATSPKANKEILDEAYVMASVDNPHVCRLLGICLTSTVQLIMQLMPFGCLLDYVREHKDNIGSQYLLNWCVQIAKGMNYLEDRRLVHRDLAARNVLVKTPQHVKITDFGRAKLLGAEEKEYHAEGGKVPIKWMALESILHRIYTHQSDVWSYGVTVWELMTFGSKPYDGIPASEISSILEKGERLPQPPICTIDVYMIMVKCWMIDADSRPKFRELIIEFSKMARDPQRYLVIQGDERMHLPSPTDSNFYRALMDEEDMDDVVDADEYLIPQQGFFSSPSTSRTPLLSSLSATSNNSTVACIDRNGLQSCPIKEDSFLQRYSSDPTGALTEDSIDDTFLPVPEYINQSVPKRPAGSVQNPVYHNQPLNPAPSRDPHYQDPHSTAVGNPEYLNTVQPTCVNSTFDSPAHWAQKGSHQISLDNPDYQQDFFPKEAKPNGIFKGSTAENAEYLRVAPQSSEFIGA

[4] = biological target: T3, Epidermal growth factor receptor (Homo sapiens, UniProt P00533); experiment: Inhibition of wild type EGFR (unknown origin)
T3 sequence (P00533 whole entry): as the sequence (P00533 whole entry, looked up, stated change not applied) above

[5] = biological target: T3, Epidermal growth factor receptor; experiment: Inhibition of human wild type GST-tagged EGFR expressed in Sf9 cells assessed as substrate phosphorylation using TK-peptide as substrate incubated for 25 mins by HTRF assay
[6] = biological target: T2, Epidermal growth factor receptor; experiment: Inhibition of human GST-tagged EGFR L858R/T790M mutant expressed in Sf9 cells assessed as substrate phosphorylation using TK-peptide as substrate incubated for 20 mins by HTRF assay
[7] = biological target: T1, Epidermal growth factor receptor; experiment: Inhibition of human EGFR del19/T790M/C797S mutant assessed as enzyme remaining activity using poly-Glu-Tyr peptide substrate incubated for 2 hrs in presence of [gamma-33P]ATP by radiometric kinase assay
[8] = biological target: T4, Epidermal growth factor receptor (Homo sapiens, UniProt P00533, C797S/L858R/T790M); experiment: Inhibition of EGFR L858R/T790M/C797S mutant (unknown origin)
T4 sequence (P00533 25-1210 T790M/C797S/L858R limits assumed): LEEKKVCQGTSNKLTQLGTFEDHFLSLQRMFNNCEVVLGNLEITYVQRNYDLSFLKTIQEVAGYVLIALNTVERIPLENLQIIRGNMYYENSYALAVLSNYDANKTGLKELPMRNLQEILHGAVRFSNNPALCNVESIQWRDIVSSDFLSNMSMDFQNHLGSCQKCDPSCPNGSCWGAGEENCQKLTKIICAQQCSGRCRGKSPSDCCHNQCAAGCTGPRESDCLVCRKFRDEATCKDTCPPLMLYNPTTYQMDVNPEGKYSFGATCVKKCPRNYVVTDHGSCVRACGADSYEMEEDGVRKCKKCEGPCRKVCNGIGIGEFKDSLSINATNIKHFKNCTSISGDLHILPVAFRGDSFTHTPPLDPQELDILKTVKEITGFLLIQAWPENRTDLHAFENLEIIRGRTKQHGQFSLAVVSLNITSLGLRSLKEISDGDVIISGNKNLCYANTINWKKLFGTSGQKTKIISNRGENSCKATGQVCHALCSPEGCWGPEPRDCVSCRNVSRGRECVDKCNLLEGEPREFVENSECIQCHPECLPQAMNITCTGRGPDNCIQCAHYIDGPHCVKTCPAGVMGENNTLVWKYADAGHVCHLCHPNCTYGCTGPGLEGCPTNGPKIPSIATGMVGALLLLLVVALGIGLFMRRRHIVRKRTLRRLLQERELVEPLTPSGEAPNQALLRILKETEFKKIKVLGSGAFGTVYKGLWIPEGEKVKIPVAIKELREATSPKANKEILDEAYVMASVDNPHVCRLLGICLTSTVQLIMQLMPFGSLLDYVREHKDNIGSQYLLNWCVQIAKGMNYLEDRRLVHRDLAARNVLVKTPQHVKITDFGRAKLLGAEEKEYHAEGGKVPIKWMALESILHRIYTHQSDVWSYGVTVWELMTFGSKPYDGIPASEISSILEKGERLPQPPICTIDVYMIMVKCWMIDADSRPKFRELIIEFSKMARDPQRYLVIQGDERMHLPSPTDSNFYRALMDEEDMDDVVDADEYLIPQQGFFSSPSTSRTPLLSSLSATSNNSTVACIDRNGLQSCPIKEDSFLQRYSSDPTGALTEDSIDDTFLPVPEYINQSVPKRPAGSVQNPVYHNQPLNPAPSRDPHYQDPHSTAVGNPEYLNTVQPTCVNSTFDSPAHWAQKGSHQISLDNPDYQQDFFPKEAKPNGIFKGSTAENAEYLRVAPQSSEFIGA

[9] = biological target: T4, Epidermal growth factor receptor; experiment: Inhibition of human GST-tagged EGFR L858R/T790M/C797S mutant expressed in Sf9 cells assessed as substrate phosphorylation using TK-peptide as substrate incubated for 10 mins by HTRF assay
[10] = biological target: T1, Epidermal growth factor receptor; experiment: Inhibition of human EGFR del19/T790M/C797S mutant using ATP-labelled peptide substrate by HTRF assay
BaF3 [11] = experiment: Cytotoxicity against mouse BaF3 cells expressing human EGFR C797S/del19 mutant assessed as inhibition of in cell viability measured after 72 hrs by CellTiter-Glo assay; format: functional, cell-based; conditions: BaF3, 72 h
BaF3 [12] = experiment: Cytotoxicity against mouse BaF3 cells expressing human EGFR C797S/T790M/del19 mutant assessed as inhibition of in cell viability measured after 72 hrs by CellTiter-Glo assay; format: functional, cell-based; conditions: BaF3, 72 h
PC-9 [13] = experiment: Antiproliferative activity against human PC-9 cells assessed as inhibition of cell proliferation; format: functional, cell-based
PC-9 [14] = experiment: Antiproliferative activity against human PC-9 cells harboring EGFR del19/T790M/C797S mutant assessed as inhibition of cell proliferation; format: functional, cell-based
PC-9 [15] = experiment: Antiproliferative activity against human PC-9 cells harboring EGFR L858R/T790M/C797S mutant assessed as inhibition of cell proliferation; format: functional, cell-based
A549 = experiment: Antiproliferative activity against human A549 assessed as inhibition of cell proliferation; format: functional, cell-based
BaF3 [16] = experiment: cells; conditions: Mus musculus
BaF3 [17] = experiment: cells; conditions: Mus musculus; remark: listed apart in the source
[18] = Half life in C57Bl/6 mouse at 3 mg/kg, iv and measured upto 8 hrs by LC-MS/MS analysis; format: ADME, organism-based; conditions: in vivo
[19] = AUClast in C57Bl/6 mouse at 3 mg/kg, iv and measured upto 8 hrs by LC-MS/MS analysis; format: ADME, organism-based; design: dose 3 mg/kg, time < 8 hrs, route iv; conditions: in vivo
[20] = Cmax in C57Bl/6 mouse plasma at 20 mg/kg, po and measured upto 8 hrs by LC-MS/MS analysis; format: ADME, organism-based; design: dose 20 mg/kg, time < 8 hrs, route po
[21] = Oral bioavailability in C57Bl/6 mouse plasma at 20 mg/kg and measured upto 8 hrs by LC-MS/MS analysis; format: ADME, organism-based
BaF3 [22] = experiment: cells; conditions: Mus musculus, BaF3, 72 h

IC50 [1]: < 100 nM | IC50 (BaF3 [2]): < 100 nM
SMILES: CN1CCC2(CC1)CCN(c1ccc(Nc3ncc(Cl)c(Nc4ccccc4P(C)(C)=O)n3)cc1Br)CC2

IC50 [3]: 916 nM | IC50 [4]: 49.2 nM
SMILES: Oc1ccc(-c2nc(-c3ccc(F)cc3)c(-c3ccnc4c3CC(c3ccccc3)N4)[nH]2)cc1 (centres undefined)

IC50 [5]: 1200 nM | IC50 [6]: 176 nM
SMILES: CCC(=O)Nc1cccc(-c2c(-c3ccccc3)[nH]c3ncnc(OC)c23)c1

IC50 [7]: 46 nM
SMILES: COC(=O)c1ccc(O)c(-c2nc(NCc3cccnc3)c3ccccc3n2)c1

IC50 [8]: > 149 nM
SMILES: CSc1nc(-c2ccc(F)cc2)c(-c2ccnc(Nc3ccccc3)c2)[nH]1

IC50 [5]: 0.2 nM | IC50 [6]: < 0.1 nM | IC50 [9]: 8.5 nM
SMILES: CCC(=O)Nc1cccc(-c2c(-c3ccc(N4CCN(C)CC4)cc3)[nH]c3ncnc(OCC(C)C)c23)c1

IC50 [10]: 0.8 nM
SMILES: COc1cc(N2CCC(N3CCN(CCO)CC3)CC2)ccc1Nc1ncc(Cl)c(Nc2ccccc2NS(C)(=O)=O)n1

SMILES: COc1cc(N2CCC(N(C)C)CC2)ccc1Nc1ncc(Cl)c(Nc2ccccc2P(C)(C)=O)n1
IC50 (BaF3 [11]): 28.4 nM | IC50 (BaF3 [12]): 59.1 nM

IC50 [1]: < 100 nM | IC50 (BaF3 [2]): < 100 nM
SMILES: C=C(C)c1cnc(Nc2ccc(N3CCC4(CCN(C)CC4)CC3)c(C)c2)nc1Nc1ccccc1P(C)(C)=O

IC50 [1]: < 100 nM | IC50 (BaF3 [2]): < 100 nM
SMILES: Cc1cc(Nc2ncc(Cl)c(Nc3ccccc3P(C)(C)=O)n2)ccc1N1CCC2(CC1)CN(C)C2

IC50 (PC-9 [13]): 658 nM | IC50 (PC-9 [14]): 740 nM | IC50 (PC-9 [15]): 596 nM | IC50 (A549): 2860 nM
SMILES: COc1ccc(-c2c3c4cc(OCCCN(C)C)c(OCCCN(C)C)cc4oc(=O)c3n3ccc4cc(O)c(OC)cc4c23)cc1O

IC50 (BaF3 [16]): 290 nM | IC50 (BaF3 [17]): 316 nM
SMILES: CC(=O)N[C@H]1CC[C@@H](N2C(=O)N(c3ccccc3Cl)Cc3cnc(Nc4ccc(N5CCN(C)CC5)c(C)c4)nc32)CC1

SMILES: Cc1cc(Nc2ncc(Cl)c(Nc3ccccc3S(=O)(=O)C(C)C)n2)c(OC(C)C)cc1C1CCNCC1 [CERITINIB]
IC50 (BaF3 [12]): 780 nM

IC50 [10]: 0.2 nM
SMILES: COc1cc(N2CCC(N3CCN(C)CC3)CC2)ccc1Nc1ncc(Cl)c(Nc2ccccc2NS(C)(=O)=O)n1

half-life [18]: 180 min | AUC(0-t) at 8 h [19]: 12100 ng·h/mL | Cmax [20]: 1100 nM | bioavailability [21]: 3%
SMILES: O=C(Nc1nccs1)C(c1cc(F)ccc1O)N1Cc2ccc(-c3ccc(N4CCNCC4)cc3)cc2C1=O (centres undefined)

IC50 [8]: 8.83 nM | IC50 [3]: 8.39 nM | IC50 [4]: < 0.3 nM
SMILES: OCCCCc1ccc(-c2nc(-c3ccc(F)cc3)c(-c3ccnc4c3CC(c3ccccc3)N4)[nH]2)cc1 (centres undefined)

SMILES: COc1cc(N2CCC(N3CCN(C)CC3)CC2)ccc1Nc1ncc(Cl)c(Nc2ccccc2P(C)(C)=O)n1 [BRIGATINIB]
IC50 (BaF3 [11]): 39.9 nM

IC50 [5]: 0.4 nM | IC50 [6]: 0.4 nM | IC50 [9]: 22 nM
SMILES: CCC(=O)Nc1cccc(-c2c(-c3ccc(N4CCN(C)CC4)cc3)[nH]c3ncn(C4CCCCC4)c(=O)c23)c1

IC50 [8]: 7.64 nM | IC50 [3]: 12.5 nM | IC50 [4]: < 0.3 nM
SMILES: OCCc1ccc(-c2nc(-c3ccc(F)cc3)c(-c3ccnc4c3CC(c3ccccc3)N4)[nH]2)cc1 (centres undefined)

IC50 (BaF3 [22]): 900 nM
SMILES: O=C(Nc1nccs1)C(c1ccccc1)N1Cc2ccc(-c3ccc4[nH]ccc4c3)cc2C1=O (centres undefined)

IC50 [7]: 17.9 nM
SMILES: N#Cc1ccc(O)c(-c2nc(NCc3cccnc3)c3ccccc3n2)c1

SMILES: COc1cc(N2CCC(N)CC2)ccc1Nc1ncc(Cl)c(-c2c[nH]c3ccccc23)n1
IC50 (BaF3 [11]): 74.4 nM | IC50 (BaF3 [12]): 132 nM

IC50 [7]: 17 nM
SMILES: N#Cc1ccc(O)c(-c2nc(NCc3cnccn3)c3ccccc3n2)c1

IC50 [5]: 0.1 nM | IC50 [6]: 0.1 nM | IC50 [9]: 8.6 nM
SMILES: CCC(=O)Nc1cccc(-c2c(-c3ccc(N4CCN(C)CC4)cc3)[nH]c3ncnc(OC(C)C)c23)c1

IC50 [5]: < 0.1 nM | IC50 [6]: < 0.1 nM | IC50 [9]: 9.4 nM
SMILES: CCCCOc1ncnc2[nH]c(-c3ccc(N4CCN(C)CC4)cc3)c(-c3cccc(NC(=O)CC)c3)c12

SMILES: COc1cc(N2CCC(N3CCN(C)CC3)CC2)ccc1Nc1ncnc(Nc2ccccc2S(=O)(=O)C(C)C)n1 [ASP-3026]
IC50 (BaF3 [11]): 324 nM | IC50 (BaF3 [12]): 1510 nM

IC50 [7]: 149 nM
SMILES: Oc1ccccc1-c1nc(NCc2cccnc2)c2ccccc2n1
